Patent CN113143900A, “Ml365在制备预防和/或治疗nlrp3炎症小体相关疾病的药物中的应用” (Southern Medical University, priority 2021, dated 2021)
Entries after “also recorded” stand apart in the source; their conditions may differ.

What was measured:
[1] = system: NLRP3 inflammasome [NLRP3炎症小体]; details: mouse BMDM; pharmacological inhibition (or knockout) of TWIK2; Di et al. 2018; cited from earlier work
[2] = system: NLRP3 inflammasome [NLRP3炎症小体]; experiment: Nigericin-induced NLRP3 inflammasome activation in LPS-primed BMDM (WB, ELISA); assay type: cell-based, mouse
TNF-α = TNF-α in supernatants of LPS + ATP treated BMDM, ELISA; assay type: cell-based, mouse; details: same supernatants
[3] = system: NLRP3 inflammasome [NLRP3炎症小体]; experiment: ATP-induced NLRP3 inflammasome activation in BMDM after siRNA knockdown of TWIK2 (WB, ELISA); assay type: cell-based, mouse; details: ML365 5 μM (Fig. 11), TWIK2 siRNA 50 nM 48 h, LPS + ATP
[4] = system: NLRC4 inflammasome [NLRC4炎症小体]; experiment: NLRC4 inflammasome activation (Pam3CSK4 + Flagellin), IL-1β ELISA; assay type: cell-based, mouse; details: ML365 5 μM (Fig. 9)
[5] = system: NLRP3 inflammasome [NLRP3炎症小体]; experiment: ATP-induced IL-1β release from LPS-primed BMDM, ELISA; assay type: cell-based, mouse
[6] = system: NLRP3 inflammasome [NLRP3炎症小体]; experiment: ATP- or Nigericin-induced NLRP3 inflammasome activation in human THP-1 macrophages; assay type: cell-based
[7] = target: T1, human THIK1 channel [人源THIK1, THIK1通道] (Homo sapiens, UniProt Q9HB14); experiment: Whole-cell patch clamp of transfected COS-7 cells, THIK1 current; assay type: cell-based
T1 construct: GFP (green fluorescent protein label of the plasmid); expressed in transfected cells; host or cells: COS-7
T1 sequence (Q9HB14 1-408): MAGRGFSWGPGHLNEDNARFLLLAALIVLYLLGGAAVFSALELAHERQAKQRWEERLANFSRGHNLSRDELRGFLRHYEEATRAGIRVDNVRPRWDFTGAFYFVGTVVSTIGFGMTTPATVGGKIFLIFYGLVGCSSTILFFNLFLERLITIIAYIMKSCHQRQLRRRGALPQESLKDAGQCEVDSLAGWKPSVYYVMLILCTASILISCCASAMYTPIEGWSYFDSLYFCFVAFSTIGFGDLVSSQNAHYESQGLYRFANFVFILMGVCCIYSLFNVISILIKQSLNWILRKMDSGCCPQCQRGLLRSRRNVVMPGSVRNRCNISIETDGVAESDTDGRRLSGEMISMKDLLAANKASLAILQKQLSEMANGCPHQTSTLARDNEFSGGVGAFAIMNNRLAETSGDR

[8] = system: AIM2 inflammasome [AIM2炎症小体]; experiment: AIM2 inflammasome activation (LPS + poly(dA:dT)), IL-1β ELISA; assay type: cell-based, mouse; details: ML365 5 μM (Fig. 9)
[9] = system: NLRP3 inflammasome [NLRP3炎症小体]; experiment: ATP-induced NLRP3 inflammasome activation in LPS-primed BMDM, Western blot (WB); assay type: cell-based, mouse
[10] = target: T2, human TWIK2 channel, functional mutant muTWIK2 Y308A/I289A/L290A [人源TWIK2-Y308A/I289A/L290A, muTWIK2] (Homo sapiens, UniProt Q9Y257, I289A/L290A/Y308A); experiment: Whole-cell patch clamp of transfected COS-7 cells, TWIK2 (muTWIK2) current; assay type: cell-based
T2 construct: GFP (green fluorescent protein label of the plasmid); expressed in transfected cells; host or cells: COS-7
T2 sequence (Q9Y257 1-313 I289A/L290A/Y308A): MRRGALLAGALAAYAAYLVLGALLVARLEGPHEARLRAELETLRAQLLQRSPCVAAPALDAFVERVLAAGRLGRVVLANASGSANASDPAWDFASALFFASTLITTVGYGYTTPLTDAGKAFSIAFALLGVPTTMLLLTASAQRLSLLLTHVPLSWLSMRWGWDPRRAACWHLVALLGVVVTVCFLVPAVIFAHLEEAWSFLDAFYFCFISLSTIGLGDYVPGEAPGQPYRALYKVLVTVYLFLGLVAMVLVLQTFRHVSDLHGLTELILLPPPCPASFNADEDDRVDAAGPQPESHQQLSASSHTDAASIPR

[11] = target: T3, human TWIK1 channel, functional mutant muTWIK1 I293/294A/K274E [人源TWIK1-I293/294A/K274E, muTWIK1] (Homo sapiens, UniProt O00180, I293A/I294A/K274E); experiment: Whole-cell patch clamp of transfected COS-7 cells, TWIK1 (muTWIK1) current; assay type: cell-based
T3 construct: GFP (green fluorescent protein label of the plasmid); expressed in transfected cells; host or cells: COS-7
T3 sequence (O00180 1-336 K274E/I293A/I294A): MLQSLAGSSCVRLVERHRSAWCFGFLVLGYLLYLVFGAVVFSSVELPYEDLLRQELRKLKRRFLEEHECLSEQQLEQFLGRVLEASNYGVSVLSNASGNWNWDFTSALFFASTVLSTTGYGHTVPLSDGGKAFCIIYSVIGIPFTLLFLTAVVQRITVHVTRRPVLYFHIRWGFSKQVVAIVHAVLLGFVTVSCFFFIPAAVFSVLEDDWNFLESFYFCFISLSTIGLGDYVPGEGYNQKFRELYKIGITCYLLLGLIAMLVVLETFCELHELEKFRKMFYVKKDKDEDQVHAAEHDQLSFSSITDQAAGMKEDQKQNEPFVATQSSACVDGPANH

[12] = system: non-canonical inflammasome [非经典炎症小体]; experiment: Non-canonical inflammasome activation (Pam3CSK4 + transfected LPS), IL-1β ELISA; assay type: cell-based, mouse; details: ML365 5 μM (Fig. 9)

For `C=C[C@H]1CN2CC[C@H]1C[C@H]2[C@H](O)c1ccnc2ccc(OC)cc12` [奎宁], the “ASC oligomerisation (in words)” value [1] is listed as “抑制caspase-1的激活、ATP诱发的IL-1β的释放以及凋亡相关斑点形成蛋白ASC的寡聚化”, the “ATP-evoked IL-1β release (in words)” value [1] is listed as “抑制caspase-1的激活、ATP诱发的IL-1β的释放” and the “caspase-1 activation (in words)” value [1] is listed as “抑制caspase-1的激活”. For the same compound, the “effect on NLRP3 inflammasome activation (in words)” value [1] was “可以抑制BMDM细胞中NLRP3炎症小体的激活”.

In the case of `COc1ccccc1C(=O)Nc1cccc(NC(=O)c2cccc(C)c2)c1` [ML365, 2-甲氧基-N-[3-[(3-甲基苯甲酰基)氨基]苯基]苯甲酰胺], the “effect on Nigericin-induced NLRP3 inflammasome activation (in words)” value ([2]; BMDM, even at 10 and 20 μM, Nigericin 10 μM 30 min) is reported as “没有影响”, the “effect on Nigericin-induced NLRP3 inflammasome activation (in words)” value ([2]; concentration not stated) is reported as “无影响” and the “TNF-α expression (in words)” value (TNF-α) is reported as “几乎无影响”. The “inhibition of ATP-induced NLRP3 inflammasome activation by ML365 after TWIK2 knockdown (in words)” value [3] was “可阻断 and 极大减弱 and 显著下降 and 可消除”, the “effect on NLRC4 inflammasome activation / induced IL-1β production (in words)” value [4] was “不抑制 and 无影响” and the “IL-1β release (in words)” value [5] was “显著降低”. For the same compound, the “effect on ATP-induced NLRP3 inflammasome activation (in words)” value ([6]; ATP) was “也在人THP-1巨噬细胞中得到证实 and 抑制”, the “effect on Nigericin-induced NLRP3 inflammasome activation (in words)” value ([6]; Nigericin) was “也在人THP-1巨噬细胞中得到证实 and 无影响” and the “inhibition of THIK1 channel (in words)” value ([7]; 10 μM) was “几乎无抑制作用”. For the same compound, the “inhibition of THIK1 channel (in words)” value ([7]; 20 μM) was “也无抑制作用”, the “effect on THIK1 channel function (in words)” value ([7]; concentration not stated) was “不影响” and the “effect on AIM2 inflammasome activation / induced IL-1β production (in words)” value [8] was “不抑制 and 无影响”. For the same compound, the “effect on ATP-induced NLRP3 inflammasome activation (in words)” value ([9]; LPS 5 μg/mL overnight, compound 2 h, ATP 5 mM 1 h) was “阻断 and 剂量依赖性地抑制 and 可以特异性抑制 and 可特异性地抑制 and 可特异性抑制”, the “expression level of caspase-1 in cell supernatant (in words)” value ([9]; WB, LPS + ATP) was “有所降低” and the “expression level of mature IL-1β in cell supernatant (in words)” value ([9]; WB, LPS + ATP) was “有所降低”. For the same compound, the “inhibition of TWIK2 channel (in words)” value ([10]; 10 μM in Fig. 3, muTWIK2 in COS-7 cells) was “特异性强效抑制剂; also recorded: 强效抑制剂; also recorded: 较强的抑制作用”, the “I/I0 (inhibition of TWIK2 channel)” value ([10]; ML365 10 μM, muTWIK2 in COS-7 cells) was 0.35±0.02 and the activity at 10 µM ([10]; ML365 10 μM, muTWIK2 in COS-7 cells, read-out: I/I0 (inhibition of TWIK2 channel)) was 35 ± 2%. For the same compound, the “selectivity for TWIK2 channel (in words)” value ([10]; compared with TWIK1 and THIK1) was “特异性选择抑制剂; also recorded: 强效选择性抑制剂; also recorded: 选择性抑制剂”, the IC50 ([10]; inhibition of TWIK2 channel, dose-response curve on muTWIK2, COS-7 cells) was 4.07 µM and the “inhibition of muTWIK1 channel (in words)” value ([11]; 10 μM) was “没有抑制作用”. For the same compound, the “inhibition of muTWIK1 channel (in words)” value ([11]; 20 μM) was “也无抑制作用”, the “effect on TWIK1 channel function (in words)” value ([11]; concentration not stated) was “不影响” and the “effect on non-canonical inflammasome activation (in words)” value [12] was “不抑制 and 无影响”.
